Test [1] has as its system HBV in HepG2.2.15 cells (HBV HepG2.2.15细胞株). The test can be described thus: In vitro anti-HBV activity in HBV HepG2.2.15 cell line (qPCR of HBV DNA in culture supernatant). It is filed as cell-based. The following applies: Hepatitis B virus, 192 h, HBV DNA in culture supernatant by qPCR, collected on day 8, top concentration 16.4 μM, 3-fold dilution, 9 points, duplicate wells.

A further test relates to HBV. The following applies: cited from Science, 299 (2003), 893-896; cited from earlier work.

`CCOC(=O)C1=C(CN2CCOC[C@H]2C(=O)NS(C)(=O)=O)NC(c2nccs2)=NC1c1ccc(F)cc1Br` (stereo partly drawn) [实施例1, 4-(2-溴-4-氟苯基)-6-(((S)-3-((甲磺酰基)氨甲酰基)吗啉代)甲基)-2-(噻唑-2-基)-1,4-二氢嘧啶-5-甲酸乙酯]: the EC50 in test [1] was found to be 1000 nM.

Consider `CCOC(=O)C1=C(CN2CCOC[C@H]2C(=O)NS(=O)(=O)C2CC2)NC(c2nccs2)=NC1c1ccc(F)cc1Br` (stereo partly drawn) [实施例2, 4-(2-溴-4-氟苯基)-6-(((S)-3-((环丙磺酰基)氨甲酰基)吗啉)甲基)-2-(噻唑-2-基)-1,4-二氢嘧啶-5-甲酸乙酯], for which, in test [1], the EC50 is 2300 nM. Against the preceding compound, the EC50 is about 2.3-fold higher.

`CCOC(=O)C1=C(CN2CCOC(CCC(=O)NCc3ccccc3)C2)NC(c2nccs2)=NC1c1ccc(F)cc1Br` (centres unmarked) [实施例3, 6-((2-(3-(苄胺)-3-氧代丙基)吗啉)甲基)-4-(2-溴-4-氟苯基)-2-(噻唑-2-基)-1,4-二氢嘧啶-5-甲酸乙酯] had a concentration for a half-maximal effect (EC50) in test [1] of 130 nM.

Turning to `CCOC(=O)C1=C(CN2CCOC[C@H]2C(=O)NC2CC2)NC(c2nccs2)=N[C@H]1c1ccc(F)cc1Br` [实施例4, (R)-4-(2-溴-4-氟苯基)-6-(((S)-3-(环丙氨甲酰基)吗啉代)甲基)-2-(噻唑-2-基)-1,4-二氢嘧啶-5-甲酸乙酯], in test [1], a half-maximal effect (EC50) was put at 700 nM.

`CCOC(=O)C1=C(CN2CCOC[C@H]2C(=O)NC2CC2)NC(c2nccs2)=N[C@H]1c1ccc(F)cc1Cl` [实施例5, (R)-4-(2-氯-4-氟苯基)-6-(((S)-3-(环丙氨甲酰基)吗啉代)甲基)-2-(噻唑-2-基)-1,4-二氢嘧啶-5-甲酸乙酯]: a half-maximal effect in test [1] (EC50) was put at 800 nM. The EC50 values of the last two compounds are within 1.5-fold of each other.

Compound `CCOC(=O)C1=C(CN2CCOC[C@H]2C(=O)NC2CC2)NC(c2nccs2)=N[C@H]1c1ccc(Cl)cc1Cl` [实施例6, (R)-6-(((S)-3-(环丙氨甲酰基)吗啉代)甲基)-4-(2,4-二氯苯基)-2-(噻唑-2-基)-1,4-二氢嘧啶-5-甲酸乙酯] displayed an EC50 in test [1] of 650 nM.

Consider `CCOC(=O)C1=C(CN2CCOC[C@H]2C(=O)NCc2ccccc2)NC(c2nccs2)=N[C@H]1c1ccc(F)cc1Br` [实施例7, (R)-6-(((S)-3-(苄基氨甲酰基)吗啉代)甲基)-4-(2-溴-4-氟苯基)-2-(噻唑-2-基)-1,4-二氢嘧啶-5-甲酸乙酯], for which, in test [1], the EC50 is 670 nM.

On to `CCOC(=O)C1=C(CN2CCOC[C@H]2C(=O)NCc2ccccc2)NC(c2nccs2)=N[C@H]1c1ccc(F)cc1Cl` [实施例8, (R)-6-(((S)-3-(苄基氨甲酰基)吗啉代)甲基)-4-(2-氯-4-氟苯基)-2-(噻唑-2-基)-1,4-二氢嘧啶-5-甲酸乙酯], for which, in test [1], the EC50 turned out to be 890 nM. This EC50 and that of the compound before are within 1.5-fold of each other.

Turning to `CCOC(=O)C1=C(CN2CCOC[C@H]2C(=O)NCc2ccccc2)NC(c2nccs2)=N[C@H]1c1ccc(Cl)cc1Cl` [实施例9, (R)-6-(((S)-3-(苄基氨甲酰)吗啉代)甲基)-4-(2,4-二氯苯基)-2-(噻唑-2-基)-1,4-二氢嘧啶-5-甲酸乙酯], the EC50 in test [1] came to 540 nM.

`CCOC(=O)C1=C(CN2CCOC[C@H]2C(=O)Nc2ccccc2)NC(c2nccs2)=N[C@H]1c1ccc(F)cc1Br` [实施例10, (R)-4-(2-溴-4-氟苯基)-6-(((S)-3-(苯基氨甲酰基)吗啉代)甲基)-2-(噻唑-2-基)-1,4-二氢嘧啶-5-甲酸乙酯] came in with an EC50 in test [1] of 800 nM.

Take `CCOC(=O)C1=C(CN2CCOC[C@H]2C(=O)Nc2ccccc2)NC(c2nccs2)=N[C@H]1c1ccc(F)cc1Cl` [实施例11, (R)-4-(2-氯-4-氟苯基)-6-(((S)-3-(苯基氨甲酰基)吗啉代)甲基)-2-(噻唑-2-基)-1,4-二氢嘧啶-5-甲酸乙酯]: it took 920 nM to reach a half-maximal effect in test [1] (EC50).

`CCOC(=O)C1=C(CN2CCOC[C@H]2C(=O)Nc2ccccc2)NC(c2nccs2)=N[C@H]1c1ccc(Cl)cc1Cl` [实施例12, (R)-4-(2,4-二氯苯基)-6-(((S)-3-(苯基氨甲酰基)吗啉代)甲基)-2-(噻唑-2-基)-1,4-二氢嘧啶-5-甲酸乙酯] showed an EC50 in test [1] of 720 nM. The EC50 values of the last two compounds are within 1.5-fold of each other.

For `CCOC(=O)C1=C(CN2CCOC[C@H]2C(=O)Nc2nccs2)NC(c2nccs2)=N[C@H]1c1ccc(F)cc1Br` [实施例13, (R)-4-(2-溴-4-氟苯基)-2-(噻唑-2-基)-6-(((S)-3-(噻唑-2-基氨甲酰)吗啉代)甲基)-1,4-二氢嘧啶-5-甲酸乙酯], it took 1400 nM to reach a half-maximal effect in test [1] (EC50).

With `CCOC(=O)C1=C(CN2CCOC(CCC(=O)Nc3ccccc3)C2)NC(c2nccs2)=NC1c1ccc(F)cc1Br` (centres unmarked) [实施例14, 4-(2-溴-4-氟苯基)-6-((-2-(3-氧代-3-(苯胺)丙基)吗啉代)甲基)-2-(噻唑-2-基)-1,4-二氢嘧啶-5-甲酸乙酯], the EC50 in test [1] was 540 nM.

In the case of `CCOC(=O)C1=C(CN2CCOC(CCC(=O)Nc3ccccc3)C2)NC(c2nccs2)=NC1c1ccc(F)cc1Cl` (centres unmarked) [实施例15, 4-(2-氯-4-氟苯基)-6-((-2-(3-氧代-3-(苯胺)丙基)吗啉代)甲基)-2-(噻唑-2-基)-1,4-二氢嘧啶-5-甲酸乙酯], the EC50 in test [1] was determined as 670 nM.

The compound `CCOC(=O)C1=C(CN2CCOC(CCC(=O)Nc3ccccc3)C2)NC(c2nccs2)=NC1c1ccc(Cl)cc1Cl` (centres unmarked) [实施例16, 4-(2,4-二氯苯基)-6-((-2-(3-氧代-3-(苯胺)丙基)吗啉代)甲基)-2-(噻唑-2-基)-1,4-二氢嘧啶-5-甲酸乙酯] came in with an EC50 in test [1] of 490 nM.

For `COC(=O)C1=C(CN2CCOC(CCC(=O)NS(=O)(=O)c3ccccc3)C2)NC(c2nccs2)=NC1c1ccc(F)cc1Br` (centres unmarked) [实施例17, 4-(2-溴-4-氟苯基)-6-((-2-(3-氧代-3-(苯磺酰胺)丙基)吗啉代)甲基)-2-(噻唑-2-基)-1,4-二氢嘧啶-5-甲酸甲酯], in test [1], the half-maximal effective concentration (EC50) worked out at 650 nM.

As to `COC(=O)C1=C(CN2CCOC(CCC(=O)NS(=O)(=O)c3ccccc3)C2)NC(c2nccs2)=NC1c1ccc(F)cc1Cl` (centres unmarked) [实施例18, 4-(2-氯-4-氟苯基)-6-((2-(3-氧代-3-(苯磺酰胺)丙基)吗啉代)甲基)-2-(噻唑-2-基)-1,4-二氢嘧啶-5-甲酸甲酯], the EC50 in test [1] worked out at 740 nM.

With `COC(=O)C1=C(CN2CCOC(CCC(=O)NS(=O)(=O)c3ccccc3)C2)NC(c2nccs2)=NC1c1ccc(Cl)cc1Cl` (centres unmarked) [实施例19, 4-(2,4-二氯苯基)-6-((2-(3-氧代-3-(苯磺酰胺)丙基)吗啉代)甲基)-2-(噻唑-2-基)-1,4-二氢嘧啶-5-甲酸甲酯], a half-maximal effect in test [1] (EC50) was put at 560 nM.

As to `Nc1ccn([C@@H]2CS[C@H](CO)O2)c(=O)n1` [拉米夫定], the IC50 with HBV is 300 nM.

The EC50 is the midpoint of the concentration-response curve. Read a high EC50 as weaker potency. As a reminder, the IC50 is the concentration that inhibits the measured activity by half.

Source of the values: patent CN104650070A, “二氢嘧啶类化合物及其在药物中的应用” (Guangdong HEC Pharmaceutical Co Ltd, priority 2013, dated 2015).
